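Method: 48-hour compound exposure of cells in 96-well plates, five concentrations, linear interpolation of endpoints. Abbreviation: GI50, concentration required for 50% inhibition of growth.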 The source made the active and inactive calls. No stated cut-off is given here; in the data, active = GI50 up to about 1.1 µM and inactive = higher.
What was measured:
Experiment in all cases: inhibition of tumour cell growth, NCI panel, 48 h
A549 = tested on: A549
DU-145 = tested on: DU-145
EKVX = tested on: EKVX
HOP-62 = tested on: HOP-62
HOP-92 = tested on: HOP-92
Hs-578T = tested on: Hs-578T
M14 = tested on: M14
MCF7 = tested on: MCF7
NCI-H226 = tested on: NCI-H226
RPMI-8226 = tested on: RPMI-8226
SK-MEL-28 = tested on: SK-MEL-28
SK-MEL-2 = tested on: SK-MEL-2
SK-MEL-5 = tested on: SK-MEL-5
SK-OV-3 = tested on: SK-OV-3
SN12C = tested on: SN12C
T47D = tested on: T47D
TK-10 = tested on: TK-10
U-251 = tested on: U-251
UACC-257 = tested on: UACC-257
UO-31 = tested on: UO-31

| SMILES | GI50 (A549) | GI50 (DU-145) | GI50 (EKVX) | GI50 (HOP-62) | GI50 (HOP-92) | GI50 (Hs-578T) | GI50 (M14) | GI50 (MCF7) | GI50 (NCI-H226) | GI50 (RPMI-8226) | GI50 (SK-MEL-28) | GI50 (SK-MEL-2) | GI50 (SK-MEL-5) | GI50 (SK-OV-3) | GI50 (SN12C) | GI50 (T47D) | GI50 (TK-10) | GI50 (U-251) | GI50 (UACC-257) | GI50 (UO-31) |
| --- | --- | --- | --- | --- | --- | --- | --- | --- | --- | --- | --- | --- | --- | --- | --- | --- | --- | --- | --- | --- |
| COc1cc(/C=C\c2nnc(/C=C\c3ccc(O)c(OC)c3)s2)ccc1O | 3.13 µM (inactive) | 2.32 µM (inactive) | 3.74 µM (inactive) | 5.65 µM (inactive) | 4.79 µM (inactive) | 3.01 µM (inactive) | 2.11 µM (inactive) | 0.69 µM (active) | 7.28 µM (inactive) | 1.98 µM (inactive) | 5.35 µM (inactive) | 3.61 µM (inactive) | 1.16 µM (inactive) | 4.41 µM (inactive) | 4.31 µM (inactive) | 2.12 µM (inactive) | 4.89 µM (inactive) | 3.06 µM (inactive) | 2.16 µM (inactive) | 3.47 µM (inactive) |
| CCOC(=O)C1C(C)C2(C#N)C(=N)OC1(C)C2(C#N)C#N (stereo not given) | > 100 µM (inactive) | 78.5 µM (inactive) | > 100 µM (inactive) | – | 30.1 µM (inactive) | 40.9 µM (inactive) | > 100 µM (inactive) | 55.2 µM (inactive) | 73.8 µM (inactive) | 18.5 µM (inactive) | 28.1 µM (inactive) | 58.2 µM (inactive) | 41.4 µM (inactive) | > 100 µM (inactive) | 64.9 µM (inactive) | 48.1 µM (inactive) | 77.6 µM (inactive) | 69.2 µM (inactive) | 42.1 µM (inactive) | 76.9 µM (inactive) |
| N#CC(C#N)=C1CCCS(=O)(=O)c2ccccc21 | > 100 µM (inactive) | > 100 µM (inactive) | > 100 µM (inactive) | > 100 µM (inactive) | > 100 µM (inactive) | > 100 µM (inactive) | > 100 µM (inactive) | > 100 µM (inactive) | > 100 µM (inactive) | > 100 µM (inactive) | > 100 µM (inactive) | > 100 µM (inactive) | – | > 100 µM (inactive) | > 100 µM (inactive) | > 100 µM (inactive) | > 100 µM (inactive) | > 100 µM (inactive) | > 100 µM (inactive) | > 100 µM (inactive) |
| COC(=O)c1cc(C)ccc1/C=C1\Cc2c(C)cc(C)cc2C1=O | 99.3 µM (inactive) | > 100 µM (inactive) | 41.5 µM (inactive) | 11.9 µM (inactive) | 4.56 µM (inactive) | 14 µM (inactive) | 17.3 µM (inactive) | > 100 µM (inactive) | 35.4 µM (inactive) | 10.3 µM (inactive) | 99.1 µM (inactive) | 22.8 µM (inactive) | > 100 µM (inactive) | – | 69 µM (inactive) | > 97.3 µM (inactive) | 17.9 µM (inactive) | 14 µM (inactive) | > 18.3 µM (inactive) | 12.3 µM (inactive) |
| CN(C)c1ncnc2c1ncn2C1C=CC(COS(N)(=O)=O)C1 (stereo not given) | > 100 µM (inactive) | > 100 µM (inactive) | > 100 µM (inactive) | > 100 µM (inactive) | > 100 µM (inactive) | 44.5 µM (inactive) | > 100 µM (inactive) | > 100 µM (inactive) | – | > 100 µM (inactive) | > 100 µM (inactive) | > 100 µM (inactive) | > 100 µM (inactive) | > 100 µM (inactive) | > 100 µM (inactive) | > 100 µM (inactive) | – | > 100 µM (inactive) | > 100 µM (inactive) | > 100 µM (inactive) |
| COC(=O)c1ccccc1/C=C1\Cc2ccc(C)c(C)c2C1=O | > 100 µM (inactive) | > 100 µM (inactive) | > 100 µM (inactive) | 59.8 µM (inactive) | 34.2 µM (inactive) | 92.9 µM (inactive) | > 100 µM (inactive) | > 100 µM (inactive) | > 100 µM (inactive) | > 100 µM (inactive) | > 100 µM (inactive) | > 100 µM (inactive) | > 100 µM (inactive) | – | > 100 µM (inactive) | > 100 µM (inactive) | > 100 µM (inactive) | 48.6 µM (inactive) | > 100 µM (inactive) | > 100 µM (inactive) |
| Cc1cc2c(cc1C(=O)c1ccc(N)cc1)OCO2 | 39.6 µM (inactive) | 55 µM (inactive) | 31 µM (inactive) | 58.7 µM (inactive) | 33.2 µM (inactive) | 48 µM (inactive) | 29.4 µM (inactive) | 20.1 µM (inactive) | – | 36.3 µM (inactive) | – | 23.9 µM (inactive) | 20 µM (inactive) | 24.5 µM (inactive) | 49.5 µM (inactive) | 28 µM (inactive) | 28.2 µM (inactive) | 24.9 µM (inactive) | > 100 µM (inactive) | 77.8 µM (inactive) |
| C/C1=C/C(C)CC(C)OC(=O)C(C)NC(=O)C(Cc2ccc(O)c(I)c2)N(C)C(=O)C(C)NC(=O)C(C)C1 (stereo not given) | < 0.01 µM (active) | 0.0302 µM (active) | 0.0262 µM (active) | < 0.01 µM (active) | < 0.0134 µM (active) | < 0.01 µM (active) | < 0.015 µM (active) | < 0.0371 µM (active) | < 0.0363 µM (active) | < 0.01 µM (active) | 0.0314 µM (active) | – | < 0.0133 µM (active) | < 0.01 µM (active) | < 0.0249 µM (active) | 0.0653 µM (active) | < 0.01 µM (active) | < 0.01 µM (active) | < 0.01 µM (active) | 0.0127 µM (active) |
| COc1cc(COC(=O)N(CC(=O)O)c2ccccc2)c([N+](=O)[O-])cc1OC | > 100 µM (inactive) | > 100 µM (inactive) | > 100 µM (inactive) | > 100 µM (inactive) | > 100 µM (inactive) | > 100 µM (inactive) | > 100 µM (inactive) | > 100 µM (inactive) | > 100 µM (inactive) | > 100 µM (inactive) | > 100 µM (inactive) | – | > 100 µM (inactive) | > 100 µM (inactive) | > 100 µM (inactive) | > 100 µM (inactive) | > 100 µM (inactive) | > 100 µM (inactive) | > 100 µM (inactive) | > 100 µM (inactive) |
| C=C1C(=O)O[C@H]2/C=C(/C)C3=CC(=O)[C@@](C)(C[C@@H](OC(=O)/C(C)=C\C)C12)O3 (stereo not given in full) | 4.05 µM (inactive) | 2.58 µM (inactive) | – | 9.4 µM (inactive) | 0.703 µM (active) | 6.05 µM (inactive) | 1.85 µM (inactive) | 0.36 µM (active) | 2.59 µM (inactive) | 0.0589 µM (active) | 0.708 µM (active) | 3.02 µM (inactive) | 1.03 µM (active) | 12.2 µM (inactive) | 1.36 µM (inactive) | 0.811 µM (active) | – | 2.43 µM (inactive) | 1.73 µM (inactive) | 1.21 µM (inactive) |
| O=C1CSC(c2cccc(Oc3ccccc3)c2)N1c1cccc(Cl)c1Cl (stereo not given) | > 100 µM (inactive) | 45 µM (inactive) | 25.2 µM (inactive) | 41.4 µM (inactive) | 12.3 µM (inactive) | 27.8 µM (inactive) | 40.4 µM (inactive) | 13.7 µM (inactive) | 28.5 µM (inactive) | – | 50 µM (inactive) | 18.1 µM (inactive) | 18.4 µM (inactive) | 65.9 µM (inactive) | 31.5 µM (inactive) | 35.8 µM (inactive) | 34.6 µM (inactive) | 18.2 µM (inactive) | 24.4 µM (inactive) | 36.9 µM (inactive) |
| COc1cc2c(cc1O)CC[n+]1cc3c(OC)c(OC)ccc3cc1-2 | > 100 µM (inactive) | > 100 µM (inactive) | > 100 µM (inactive) | – | 87.7 µM (inactive) | > 100 µM (inactive) | > 100 µM (inactive) | > 100 µM (inactive) | > 100 µM (inactive) | 81.8 µM (inactive) | > 100 µM (inactive) | > 100 µM (inactive) | 51.1 µM (inactive) | > 100 µM (inactive) | > 100 µM (inactive) | 94.4 µM (inactive) | > 100 µM (inactive) | 35.6 µM (inactive) | 90.4 µM (inactive) | > 100 µM (inactive) |
| Cc1ccc([S+]([O-])CC(CF)OCn2cc(C)c(=O)[nH]c2=O)cc1 (stereo not given) | > 100 µM (inactive) | > 100 µM (inactive) | – | > 100 µM (inactive) | > 100 µM (inactive) | > 100 µM (inactive) | > 100 µM (inactive) | > 100 µM (inactive) | > 100 µM (inactive) | > 100 µM (inactive) | > 100 µM (inactive) | > 100 µM (inactive) | > 100 µM (inactive) | > 100 µM (inactive) | > 100 µM (inactive) | > 100 µM (inactive) | > 100 µM (inactive) | > 100 µM (inactive) | – | > 100 µM (inactive) |
| CCN(CC)CCC(=O)c1ccc(Oc2ccccc2)cc1 | > 100 µM (inactive) | 27.7 µM (inactive) | 20.8 µM (inactive) | 27.5 µM (inactive) | 15.8 µM (inactive) | 18.2 µM (inactive) | 38.1 µM (inactive) | 17.9 µM (inactive) | > 100 µM (inactive) | 5.79 µM (inactive) | 17.5 µM (inactive) | 97.7 µM (inactive) | – | > 100 µM (inactive) | 17.6 µM (inactive) | 19 µM (inactive) | 14.2 µM (inactive) | 17.9 µM (inactive) | 17.2 µM (inactive) | – |
| CC1OC1P(=O)(O)O (stereo not given) | > 100 µM (inactive) | > 100 µM (inactive) | > 100 µM (inactive) | > 100 µM (inactive) | > 100 µM (inactive) | > 100 µM (inactive) | – | > 100 µM (inactive) | – | 28 µM (inactive) | > 100 µM (inactive) | > 100 µM (inactive) | > 100 µM (inactive) | > 100 µM (inactive) | > 100 µM (inactive) | > 100 µM (inactive) | > 100 µM (inactive) | > 100 µM (inactive) | > 100 µM (inactive) | > 100 µM (inactive) |
